Laboratory results published in paper PMC4163096 (Bioorganic & medicinal chemistry letters, 2014).
Like-named read-outs stand apart in the source and are kept apart here. Each block holds one molecule with its values, some of them ahead of it.

Legend:
TSPO [1] = molecular target: T1, TSPO (Rattus norvegicus, UniProt P16257); conditions: cited from earlier work; for Ki: read-out: Ki for TSPO in C6 glioma, C6 glioma
TSPO [2] = molecular target: T1, TSPO; assay: Radiometric TSPO binding assay, [3H]PK11195 displacement in heart lysate; set-up: species or system athymic nude rat; conditions: for Ki: read-out: Heart Ki, versus [3H]PK11195, Ki ± S.E.M., triplicate
TSPO [3] = molecular target: T1, TSPO; assay: Radiometric TSPO binding assay, [3H]PK11195 displacement in kidney lysate; set-up: species or system athymic nude rat; conditions: read-out: Kidney Ki, low-affinity binding (mixed affinity binding), versus [3H]PK11195, Ki ± S.E.M., low-affinity component
[4] = Radio-TLC analysis of plasma samples taken during PET scan; type: in vivo, male Wistar rats; conditions: samples at 2, 12, 30, 60 min, n=2, preliminary

Compound: CCc1cc(CC)n2nc(-c3ccc(OCCF)cc3)c(CC(=O)N(CC)CC)c2n1 [2b]
Ki (TSPO [1]): 0.27 nM

Ki (TSPO [2]): 4.94 ± 0.662 nM
Heart Ki (TSPO [2]; versus [3H]PK11195, Ki ± S.E.M., triplicate): did not appreciably bind TSPO
Compound: CN(C)C(=O)Cc1nn(-c2ccccn2)c(=O)c2c1c1ccc(Cl)cc1n2C [compound 13]

Ki (TSPO [2]): 0.00118 ± 9e-05 nM
Compound: CN(C)C(=O)Cc1nn(-c2cccc([N+](=O)[O-])c2)c(=O)c2c1c1ccc(Cl)cc1n2C [compound 11]

Ki (TSPO [3]): 0.969 nM
Compound: CN(C)C(=O)Cc1nn(-c2ccc(F)cc2)c(=O)c2c1c1ccc(Cl)cc1n2C [compound 12]

% parent at 60 min [4]: > 90%
Compound: CN(C)C(=O)Cc1nn(-c2cccc([18F])n2)c(=O)c2c1c1ccc(Cl)cc1n2C [[^18F]-14, 7-chloro-N,N,5-trimethyl-4-oxo-3(6-[^18F]fluoropyridin-2-yl)-3,5-dihydro-4H-pyridazino[4,5-b]indole-1-acetamide]

Compound: CCc1cc(CC)n2nc(-c3ccc(OCC[18F])cc3)c(CC(=O)N(CC)CC)c2n1 [[^18F]-2b, 2-(5,7-diethyl-2-(4-(2-[^18F]fluoroethoxy)phenyl)pyrazolo[1,5-a]pyrimidin-3-yl)-N,N– diethylacetamide]
enhancement in affinity compared to [18F]-2a (TSPO [1]; TSPO affinity): 36 fold

Compound: COc1ccc(OC)c(CN(C(=O)CF)c2ccccc2Oc2ccccc2)c1 [compound 1]
Ki (TSPO [1]): 6.17 nM
